Patent publication US20190216761A1, “COMPOSITIONS COMPRISING 15-HEPE AND METHODS OF USING THE SAME” (Afimmune Limited, priority 2015, published 2019)
Substitutions are numbered along the chain they refer to. Marks after values point to notes of the source that are not given here.

Assays:
rPPARδ = test: PPAR agonist reporter assay (Gal4 hybrid receptor, luciferase); format: cell-based, rat
Procedure: (§1) This study utilized proprietary reporter cells expressing a hybrid receptor comprising the N-terminal Gal4 DNA binding domain fused to the ligand binding domain of the specific human nuclear receptor (hPPARα, hPPARδ, and hPPARγ) and rat nuclear receptor (rPPARα, rPPARδ, and rPPARγ). The reporter vectors used in this Example comprise the firefly luciferase gene functionally linked to the Gal4 upstream activation sequence.
Nuclear Receptor assay was performed by dispensing 100 μL of a suspension of Reporter Cells in Cell Recovery Medium (CRM) containing 10% charcoal stripped FBS into each well of a white 96-well plate. Test compounds were diluted using compound screening medium (CSM) containing 10% charcoal stripped FBS to generate “2×-concentration” treatment media. Immediately after this dilution step, 100 μL of each diluted 2×-concentration treatment medium was dispensed (in triplicate) into the Reporter Cell-containing assay wells.
After incubation at 37° C. for 24 hours, the treatment media was discarded. 100 μL of Luciferase Detection Reagent substrate was added to each well and RLUs were quantified from each well to determine nuclear receptor activities.

hPPARγ = target: T1, hPPARγ (Homo sapiens, UniProt P37231); test: PPAR antagonist reporter assay (reference agonist at EC80); format: cell-based
T1 construct: expressed in transfected cells
T1 sequence (P37231 238-503 limits assumed): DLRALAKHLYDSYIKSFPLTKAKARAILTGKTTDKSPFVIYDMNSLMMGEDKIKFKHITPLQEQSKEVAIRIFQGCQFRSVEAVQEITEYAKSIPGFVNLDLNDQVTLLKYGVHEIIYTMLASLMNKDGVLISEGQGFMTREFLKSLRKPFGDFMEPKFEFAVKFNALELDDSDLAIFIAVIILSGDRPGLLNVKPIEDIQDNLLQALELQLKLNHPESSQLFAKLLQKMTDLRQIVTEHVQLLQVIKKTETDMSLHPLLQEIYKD
Procedure: as §1
(§2) Nuclear Receptor assay was performed by suspending Reporter Cells in CRM containing 10% charcoal stripped FBS. 2×-EC80 concentrations of the appropriate reference agonist were then added to the Reporter Cell suspension, and 100 μL of the mixture dispensed into wells of a white 96-well plate. Test compounds were diluted using compound screening medium (CSM) containing 10% charcoal stripped FBS to generate “2×-concentration” treatment media. Immediately after this dilution step, 100 μL of each diluted 2×-concentration treatment medium was dispensed (in triplicate) into the Reporter Cell-containing assay wells.
(§3) After incubation at 37° C. for 24 hours, the treatment media was discarded. Each well was rinsed once with LCM Buffer; LCM substrate was then added. After incubation for 30 minutes at 37° C., fluorescence was measured to determine the relative number of live cells per assay well. LCM substrate was then discarded and 100 μL of Luciferase Detection Reagent substrate was added to each well. RLUs were quantified from each well to determine nuclear receptor activities.

rPPARα = target: T2, rPPARα (Rattus norvegicus, UniProt P37230); test: as above; format: cell-based
T2 construct: expressed in transfected cells
T2 sequence (P37230 239-466 limits assumed): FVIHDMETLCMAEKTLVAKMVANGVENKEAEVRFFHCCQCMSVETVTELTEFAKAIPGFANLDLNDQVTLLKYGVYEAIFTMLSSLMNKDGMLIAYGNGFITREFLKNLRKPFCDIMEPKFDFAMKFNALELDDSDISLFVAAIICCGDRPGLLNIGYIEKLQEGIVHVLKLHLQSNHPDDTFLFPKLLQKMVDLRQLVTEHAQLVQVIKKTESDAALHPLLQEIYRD
Procedure: as §1, §2, §3

hPPARα = target: T3, hPPARα (Homo sapiens, UniProt Q07869); test: as above; format: cell-based
T3 construct: expressed in transfected cells
T3 sequence (Q07869 239-466 limits assumed): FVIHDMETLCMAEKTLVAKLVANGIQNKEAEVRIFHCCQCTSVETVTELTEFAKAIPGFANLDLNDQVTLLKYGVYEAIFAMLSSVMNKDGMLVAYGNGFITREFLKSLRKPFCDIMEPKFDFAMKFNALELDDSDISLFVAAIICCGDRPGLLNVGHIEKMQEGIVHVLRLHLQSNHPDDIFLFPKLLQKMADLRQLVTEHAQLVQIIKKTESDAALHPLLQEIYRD
Procedure: as §1, §2, §3

rPPARγ = target: T4, rPPARγ (Rattus norvegicus, UniProt O88275); test: as above; format: cell-based
T4 construct: expressed in transfected cells
T4 sequence (O88275 238-503 limits assumed): T1 sequence (P37231 238-503 limits assumed) with S93N, V98I, L226V, Q245H
Procedure: as §1, §2, §3

## CC/C=C\C/C=C\C/C=C\C/C=C\C/C=C\CCCC(=O)OCC [EPA-EE, EPA ethyl ester, reference compound]
rPPARδ; 137 nM
  Fold-Activation (vs. 0.10% DMSO) rPPAR-δ: 1.3 fold
rPPARδ; 412 nM
  Fold-Activation (vs. 0.10% DMSO) rPPAR-δ: 1.3 fold
rPPARδ; 1,235 nM
  Fold-Activation (vs. 0.10% DMSO) rPPAR-δ: 1.2 fold
rPPARδ; 3,704 nM
  Fold-Activation (vs. 0.10% DMSO) rPPAR-δ: 1.5 fold
rPPARδ; 11,111 nM
  Fold-Activation (vs. 0.10% DMSO) rPPAR-δ: 1.4 fold
rPPARδ; 33,333 nM
  Fold-Activation (vs. 0.10% DMSO) rPPAR-δ: 1.5 fold
rPPARδ; 100,000 nM
  Fold-Activation (vs. 0.10% DMSO) rPPAR-δ: 2.0 fold
rPPARδ; 300,000 nM
  Fold-Activation (vs. 0.10% DMSO) rPPAR-δ: 3.6* fold
hPPARγ; 137 nM
  % Inhibition of agonist-stimulated receptor activity vs. 0.10% DMSO, hPPAR-γ: 13%
hPPARγ; 412 nM
  % Inhibition of agonist-stimulated receptor activity vs. 0.10% DMSO, hPPAR-γ: 3.8%
hPPARγ; 1,235 nM
  % Inhibition of agonist-stimulated receptor activity vs. 0.10% DMSO, hPPAR-γ: −8.0%
hPPARγ; 3,704 nM
  % Inhibition of agonist-stimulated receptor activity vs. 0.10% DMSO, hPPAR-γ: −11%
hPPARγ; 11,111 nM
  % Inhibition of agonist-stimulated receptor activity vs. 0.10% DMSO, hPPAR-γ: −8.4%
hPPARγ; 33,333 nM
  % Inhibition of agonist-stimulated receptor activity vs. 0.10% DMSO, hPPAR-γ: 2.9%
hPPARγ; 100,000 nM
  % Inhibition of agonist-stimulated receptor activity vs. 0.10% DMSO, hPPAR-γ: −0.59%
hPPARγ; 300,000 nM
  % Inhibition of agonist-stimulated receptor activity vs. 0.10% DMSO, hPPAR-γ: 30%
hPPARγ; at higher test concentrations
  inhibition of human PPARs (in words), hPPARγ: does not exhibit similar inhibitory activity
rPPARα; 137 nM
  % Inhibition of agonist-stimulated receptor activity vs. 0.10% DMSO, rPPAR-α: 51%
rPPARα; 412 nM
  % Inhibition of agonist-stimulated receptor activity vs. 0.10% DMSO, rPPAR-α: 20%
rPPARα; 1,235 nM
  % Inhibition of agonist-stimulated receptor activity vs. 0.10% DMSO, rPPAR-α: 5.7%
rPPARα; 3,704 nM
  % Inhibition of agonist-stimulated receptor activity vs. 0.10% DMSO, rPPAR-α: 4.2%
rPPARα; 11,111 nM
  % Inhibition of agonist-stimulated receptor activity vs. 0.10% DMSO, rPPAR-α: −4.7%
rPPARα; 33,333 nM
  % Inhibition of agonist-stimulated receptor activity vs. 0.10% DMSO, rPPAR-α: 1.4%
rPPARα; 100,000 nM
  % Inhibition of agonist-stimulated receptor activity vs. 0.10% DMSO, rPPAR-α: 13%
rPPARα; 300,000 nM
  % Inhibition of agonist-stimulated receptor activity vs. 0.10% DMSO, rPPAR-α: 36%
rPPARα; at higher test concentrations
  inhibition of rat PPARs (in words), rPPARα: does not exhibit similar inhibitory activity
hPPARα; 137 nM
  % Inhibition of agonist-stimulated receptor activity vs. 0.10% DMSO, hPPAR-α: 35%
hPPARα; 412 nM
  % Inhibition of agonist-stimulated receptor activity vs. 0.10% DMSO, hPPAR-α: 20%
hPPARα; 1,235 nM
  % Inhibition of agonist-stimulated receptor activity vs. 0.10% DMSO, hPPAR-α: 18%
hPPARα; 3,704 nM
  % Inhibition of agonist-stimulated receptor activity vs. 0.10% DMSO, hPPAR-α: 17%
hPPARα; 11,111 nM
  % Inhibition of agonist-stimulated receptor activity vs. 0.10% DMSO, hPPAR-α: 11%
hPPARα; 33,333 nM
  % Inhibition of agonist-stimulated receptor activity vs. 0.10% DMSO, hPPAR-α: 10%
hPPARα; 100,000 nM
  % Inhibition of agonist-stimulated receptor activity vs. 0.10% DMSO, hPPAR-α: 7.1%
hPPARα; 300,000 nM
  % Inhibition of agonist-stimulated receptor activity vs. 0.10% DMSO, hPPAR-α: 2.8%
hPPARα; at higher test concentrations
  inhibition of human PPARs (in words), hPPARα: does not exhibit similar inhibitory activity
rPPARγ; 137 nM
  % Inhibition of agonist-stimulated receptor activity vs. 0.10% DMSO, rPPAR-γ: 9.6%
rPPARγ; 412 nM
  % Inhibition of agonist-stimulated receptor activity vs. 0.10% DMSO, rPPAR-γ: −7.4%
rPPARγ; 1,235 nM
  % Inhibition of agonist-stimulated receptor activity vs. 0.10% DMSO, rPPAR-γ: −7.3%
rPPARγ; 3,704 nM
  % Inhibition of agonist-stimulated receptor activity vs. 0.10% DMSO, rPPAR-γ: −0.55%
rPPARγ; 11,111 nM
  % Inhibition of agonist-stimulated receptor activity vs. 0.10% DMSO, rPPAR-γ: 2.8%
rPPARγ; 33,333 nM
  % Inhibition of agonist-stimulated receptor activity vs. 0.10% DMSO, rPPAR-γ: 5.0%
rPPARγ; 100,000 nM
  % Inhibition of agonist-stimulated receptor activity vs. 0.10% DMSO, rPPAR-γ: 6.2%
rPPARγ; 300,000 nM
  % Inhibition of agonist-stimulated receptor activity vs. 0.10% DMSO, rPPAR-γ: 7.0%
rPPARγ; at higher test concentrations
  inhibition of rat PPARs (in words), rPPARγ: does not exhibit similar inhibitory activity
